# Results taken from patent US5519016A, “Aryl group- or aromatic heterocyclic group-substituted aminoquinolone derivatives and anti-HIV agent” (priority 1992, dated 1996).
# Structures can show the parent of a compound that is named as a salt. Where two headings read alike, the source gives them in different places.
# Assays:
# HIV [1] = test: microbe, parasite or virus in culture; type: cell-based; conditions: for S.I. (selective index, CC50 /EC50): CC50 = 50% growth inhibition of non-infected cells, 7200 min; for EC50: Human immunodeficiency virus 1, MT4, 120 h, 50% CPE inhibition in HIV infected MT-4 cells, 5 days, 37° C.
# Source text: Exponentially growing MT-4 cells were centrifuged, and the pellets were resuspended in RPMI-1640 medium containing 10% fetal serum (serum medium). Portions of the cell suspension were either inoculated with HIV, or left uninfected. Serum medium was then further added to the suspensions, which were then washed and centrifuged. The resulting pellets were then suspended in serum medium to a concentration of 4×10^5 cells/mi. Preparations of the test compound (in serum medium) were […] in a stepwise manner, and 100 μl of each of the solutions were placed in separated wells of a 96-well plastic microtitre plate. 100 μl of each of the cell suspensions (infected and non-infected) were then added to the wells, so that each dilution of each of the test compounds was tested against both infected and noninfected cells. Blanks (not added either of the cells) were also prepared. The preparations were then cultured by standing the plate at 37° C. for 5 days in the presence of 5 % carbon dioxide gas.
# At the end of this time, living cells were assayed for CPE inhibitory activity by the spectrophotometric assay of the blue formazan produced by the reduction of MTT [3-(4,5-dimethylthiazol-2-yl) -2,5-diphenyl-tetrazolium bromide]which was added to the preparations.
# CPE inhibitory activity was defined as 100% in non-infected cells to which no test compounds had been added, while CPE inhibitory activity was defined as 0% in infected cells to which test compounds had not been added.
# HIV [2] = conditions: literature / WO-A-90-13542; cited from earlier work
EC50 (HIV [1]),Compound,"S.I. (selective index, CC50 /EC50) (HIV [1])",anti-HIV activity (in words) (HIV [1]; Pauwel method),anti-HIV activity (reported) (HIV [2]),anti-HIV activity (in words) (HIV [1])
1 µg/mL,CC1COc2c(N3CCN(c4ccccn4)CC3)c(F)cc3c(=O)c(C(=O)O)cn1c23 (stereo not drawn) [Example 85],17,–,–,–
0.4 µg/mL,CC(C)(C)n1cc(C(=O)O)c(=O)c2cc(F)c(N3CCN(c4ncccn4)CC3)cc21 [Example 95],> 62,–,–,–
0.3 µg/mL,CNn1cc(C(=O)O)c(=O)c2cc(F)c(N3CCN(c4ncccn4)CC3)c(OC(F)F)c21 [Example 53],> 83,–,–,–
1 µg/mL,"CCn1cc(C(=O)O)c(=O)c2ccc(N3CCN(c4ncccn4)CC3)c(OC(F)F)c21 [Example 99, 1-ethyl-8-difluoromethoxy-7-[4-(2-pyrimidinyl)piperazin-1-yl]-1,4-dihydro-4-oxoquinoline-3-carboxylic acid]",> 25,–,–,–
0.074 µg/mL,"O=C(O)c1cn2c3c(c(N4CCN(c5ncccn5)CC4)c(F)cc3c1=O)OCC2CF (stereo not drawn) [Example 87, 9-fluoro-3-fluoromethyl-10-[4-(2-pyrimidinyl)piperazin-1yl]-2,3-dihydro-7-oxo-7H -pyrido[1,2,3-de][1,4]benzoxazine-6-carboxylic acid]",> 512,–,–,–
0.5 µg/mL,"CCn1cc(C(=O)O)c(=O)c2cc(F)c(N3CCN(c4ncccn4)C(C)C3)c(OC(F)F)c21 (stereo not drawn) [Example 94, 1-ethyl-6-fluoro-8-difluoromethoxy-7-[3-methyl-4-(2-pyrimidinyl)piperazin-1-yl]-1,4-dihydro-4-oxoquinoline-3-carboxylic acid]",21,–,–,–
0.01 µg/mL,"CCn1cc(C(=O)O)c(=O)c2cc(F)c(N3CCN(c4ccccc4OC)CC3)c(OC(F)F)c21 [Example 63, 1-ethyl-6-fluoro-8-difluoromethoxy-7-[4-(2-methoxyphenyl)piperazin-1-yl]-1,4-dihydro-4-oxoquinoline-3carboxylic acid]",1000,–,–,–
0.5 µg/mL,COc1ccccc1N1CCN(c2c(F)cc3c(=O)c(C(=O)O)cn(CCF)c3c2OC)CC1 [Example 70],20,–,–,–
0.8 µg/mL,CCn1cc(C(=O)O)c(=O)c2cc(F)c(N3CCN(c4ncccn4)CC3)nc21 [Example 92],31,–,–,–
0.08 µg/mL,"CCn1cc(C(=O)O)c(=O)c2cc(F)c(N3CCN(c4ncccn4)CC3)c(OC(F)F)c21 [Example 67, 1-ethyl-6-fluoro-8-difluoromethoxy-7-[4-(2-pyrimidinyl)piperazin-1-yl]-1,4-dihydro-4-oxoquinoline-3-carboxylic acid]",> 500,–,–,–
0.23 µg/mL,CCn1cc(C(=O)O)c(=O)c2cc(F)c(N3CCN(c4cnccn4)CC3)c(OC(F)F)c21 [Example 37],> 109,–,–,–
0.4 µg/mL,"CC1Sc2c(C(=O)O)c(=O)c3cc(F)c(N4CCN(c5ncccn5)CC4)cc3n21 (stereo not drawn) [Example 100, 6-fluoro-1-methyl-4-oxo-7-[4-(2-pyrimidinyl)piperazin-1-yl]-1H, 4H-[1,3]thiazeto[3,2-a]quinoline-3-carboxylic acid]",9,–,–,–
0.07 µg/mL,COc1ccccc1N1CCN(c2c(F)cc3c(=O)c(C(=O)O)cn(CCF)c3c2OC(F)F)CC1 [Example 38],79,–,–,–

# More lines, now with the values behind:
Compound,EC50 (HIV [1]),"S.I. (selective index, CC50 /EC50) (HIV [1])",anti-HIV activity (in words) (HIV [1]; Pauwel method),anti-HIV activity (reported) (HIV [2]),anti-HIV activity (in words) (HIV [1])
O=C(O)c1cn(C2CC2)c2c(OC(F)F)c(N3CCN(c4ncc(Cl)cn4)CC3)c(F)cc2c1=O [Example 19],0.07 µg/mL,57,–,–,–
"COc1ccccc1N1CCN(c2c(F)cc3c(=O)c(C(=O)O)cn(C)c3c2OC(F)F)CC1 [Example 23, 6-fluoro-8-difluoromethoxy-1-methyl-7-[4-(2-methoxyphenyl)piperazin-1-yl]-1,4-dihydro-4-oxoquinoline-3-carboxylic acid]",0.021 µg/mL,309,–,–,–
"CCn1cc(C(=O)O)c(=O)c2cc(F)c(N3CCNC(C)C3)c(F)c21 (stereo not drawn) [Lomefloxacin, reference compound]",–,–,little or no anti-HIV activity,anti-HIV activity,–
COc1cccc(N2CCN(c3c(F)cc4c(=O)c(C(=O)O)cn(C5CC5)c4c3OC(F)F)CC2)c1 [Example 7],0.22 µg/mL,113,–,–,–
"NC1CCN(c2nc3c(cc2F)c(=O)c(C(=O)O)cn3-c2ccc(F)cc2F)C1 (stereo not drawn) [Tosufloxacin, reference compound]",–,–,little or no anti-HIV activity,anti-HIV activity,–
"C[C@H]1COc2c(N3CCN(C)CC3)c(F)cc3c(=O)c(C(=O)O)cn1c23 [DR-3355, reference compound]",–,–,have failed,Anti-HIV activity has recently been reported,–
COc1ccccc1N1CCN(c2c(F)c(N)c3c(=O)c(C(=O)O)cn(C(C)C)c3c2OC(F)F)CC1 [Example 29],0.05 µg/mL,22,–,–,–
"O=C(O)c1cn(C2CC2)c2c(OC(F)F)c(N3CCN(c4ncccn4)CC3)c(F)cc2c1=O [Example 18, 1-cyclopropyl-6-fluoro-8-difluoromethoxy-7-[4-(2-pyrimidinyl)piperazin-1-yl]-1,4-dihydro-4-oxoquinoline-3-carboxylic acid]",0.07 µg/mL,121,–,–,–
"Cn1cc(C(=O)O)c(=O)c2cc(F)c(N3CCN(c4ncccn4)CC3)c(OC(F)F)c21 [Example 24, 6-fluoro-8-difluoromethoxy-1-methyl-7-[4-(2-pyrimidinyl)piperazin-1-yl]-1,4-dihydro-4-oxoquinoline-3-carboxylic acid]",0.07 µg/mL,257,–,–,–
"O=C(O)c1cn(C2CC2)c2cc(N3CCNCC3)c(F)cc2c1=O [Ciprofloxacin, reference compound]",–,–,–,anti-HIV activity,little or no anti-HIV activity
"CCn1cc(C(=O)O)c(=O)c2cc(F)c(N3CCNCC3)cc21 [Norfloxacin, reference compound]",–,–,little or no anti-HIV activity,anti-HIV activity,–
"COc1ccccc1N1CCN(c2c(F)cc3c(=O)c(C(=O)O)cn(C4CC4)c3c2OC(F)F)CC1 [Example 1, 1-cyclopropyl-6-fluoro-8-difluoromethoxy-7-[4-(2-methoxyphenyl)piperazin-1-yl]-1,4-dihydro-4-oxoquinoline-3-carboxylic acid.hydrochloride]",0.015 µg/mL,400,–,–,–
"COc1ccc(N2CCN(c3c(F)cc4c(=O)c(C(=O)O)cn(C5CC5)c4c3OC(F)F)CC2)cc1 [Example 8, 1-cyclopropyl-6-fluoro-8-difluoromethoxy-7-[4-(4-methoxyphenyl)piperazin-1-yl]-1,4-dihydro-4-oxoquinoline-3carboxylic acid]",0.1 µg/mL,500,–,–,–
O=C(O)c1cn(C2CC2)c2c(OC(F)F)c(N3CCN(c4nc5ccccc5o4)CC3)c(F)cc2c1=O [Example 21],0.037 µg/mL,16,–,–,–
O=C(O)c1cn(C2CC2)c2c(OC(F)F)c(N3CCN(c4ncccc4[N+](=O)[O-])CC3)c(F)cc2c1=O [Example 17],0.5 µg/mL,250,–,–,–
"COc1ccccc1N1CCN(c2c(F)cc3c(=O)c(C(=O)O)cn(CCOC(C)=O)c3c2OC(F)F)CC1 [Example 46, 1-(2-acetoxyethyl)-6-fluoro-8-difluoromethoxy-7-[4-(2-methoxyphenyl)piperazin-1-yl]-1,4-dihydro-4-oxoquinoline-3-carboxylic acid]",0.06 µg/mL,155,–,–,–
O=C(O)c1cn(C2CC2)c2c(OC(F)F)c(N3CCN(c4ccc(F)cc4)CC3)c(F)cc2c1=O [Example 6],0.02 µg/mL,34,–,–,–
"CN1CCN(c2cc3c(cc2F)c(=O)c(C(=O)O)cn3-c2ccc(F)cc2)CC1 [Difloxacin, reference compound]",–,–,little or no anti-HIV activity,anti-HIV activity,–
"O=C(O)c1cn(C2CC2)c2c(OC(F)F)c(N3CCN(c4ccccc4)CC3)c(F)cc2c1=O [Example 2, 1-cyclopropyl-6-fluoro-8-difluoromethoxy-7-(4-phenylpiperazin-1-yl)-1,4-dihydro-4-oxoquinoline-3-carboxylic acid]",0.03 µg/mL,100,–,–,–
"CCn1cc(C(=O)O)c(=O)c2cc(F)c(N3CCNCC3)nc21 [Enoxacin, reference compound]",–,–,little or no anti-HIV activity,anti-HIV activity,–
